Test results as given in patent US20220313698A1, “MODULATORS OF CYSTIC FIBROSIS TRANSMEMBRANE CONDUCTANCE REGULATOR” (Vertex Pharmaceuticals Incorporated, priority 2019, published 2022).

Target: CFTR-mediated chloride transport (Homo sapiens, UniProt P13569)
Test: Corrector Assay A - membrane potential dye assay (enteroid cells)
Conditions: for Corrector Assay A % activity: % of chloride transport of triple combination control (1 μM (14S)-dispiro macrocycle + 3 μM tezacaftor + 300 nM ivacaftor); for EC50: read-out: Corrector Assay A EC50, human intestinal enteroid cells, 18-24 h incubation, acute 10 μM forskolin + 300 nM ivacaftor
Procedure: Base medium (ADF+++) consisted of Advanced DMEM/Ham's F12, 2 mM Glutamax, 10 mM HEPES, 1 μg/ml penicillin/streptomycin.
Intestinal enteroid maintenance medium (IEMM) consisted of ADF+++, 1×B27 supplement, 1×N2 supplement, 1.25 mM N-acetyl cysteine, 10 mM Nicotinamide, 50 ng/mL hEGF, 10 nM Gastrin, 1 μg/mL hR-spondin-1, 100 ng/mL hNoggin, TGF-b type 1 inhibitor A-83-01, 100 μg/mL Primocin, 10 μM P38 MAPK inhibitor SB202190.
Bath 1 Buffer consisted of 1 mM MgCl2, 160 mM NaCl, 4.5 mM KCl, 10 mM HEPES, 10 mM Glucose, 2 mM CaCl2).
Chloride Free Buffer consisted of 1 mM Magnesium Gluconate, 2 mM Calcium Gluconate, 4.5 mM Potassium Gluconate, 160 mM Sodium Gluconate, 10 mM HEPES, 10 mM Glucose.
Bath 1 Dye Solution consisted of Bath 1 Buffer, 0.04% Pluronic F127, 20 μM Methyl Oxonol, 30 μM CaCCinh-A01, 30 μM Chicago Sky Blue.
Chloride Free Dye Solution consisted of Chloride Free Buffer, 0.04% Pluronic F127, 20 μM Methyl Oxonol, 30 μM CaCCinh-A01, 30 μM Chicago Sky Blue.
Chloride Free Dye Stimulation Solution consisted of Chloride Free Dye Solution, 10 μM forskolin, 100 μM IBMX, and 300 nM Ivacaftor.
Cells were recovered in cell recovery solution, collected by centrifugation at 650 rpm for 5 min at 4° C., resuspended in TryPLE and incubated for 5 min at 37° C. Cells were then collected by centrifugation at 650 rpm for 5 min at 4° C. and resuspended in IEMM containing 10 μM ROCK inhibitor (RI). The cell suspension was passed through a 40 μm cell strainer and resuspended at 1×10^6 cells/mL in IEMM containing 10 μM RI. Cells were seeded at 5000 cells/well into multi-well plates and incubated for overnight at 37° C., 95% humidity and 5% CO2 prior to assay.
Briefly, cells were washed 5 times in Bath 1 Buffer. Bath 1 Dye Solution was added and the cells were incubated for 25 min at room temperature. Following dye incubation, cells were washed 3 times in Chloride Free Dye Solution. Chloride transport was initiated by addition of Chloride Free Dye Stimulation Solution and the fluorescence signal was read for 15 min. The CFTR-mediated chloride transport for each condition was determined from the AUC of the fluorescence response to acute forskolin and 300 nM N-[2,4-bis(1,1-dimethylethyl)-5-hydroxyphenyl]-1,4-dihydro-4-oxoquinoline-3-carboxamide stimulation. Chloride transport was then expressed as a percentage of the chloride transport following treatment with 1 μM (14S)-8-[3-(2-{Dispiro[2.0.2.1]heptan-7-yl}ethoxy)-1H-pyrazol-1-yl]-12,12-dimethyl-2λ^6-thia-3,9,11,18,23-pentaazatetracyclo[17.3.1.111,14.05,10]tetracosa-1(22),5,7,9,19(23),20-hexaene-2,2,4-trione, 3 μM (R)-1-(2,2-difluorobenzo[d][1,3]dioxol-5-yl)-N-(1-(2,3-dihydroxypropyl)-6-fluoro-2-(1-hydroxy-2-methylpropan-2-yl)-1H-indol-5-yl)cyclopropanecarboxamide and 300 nM acute N-[2,4-bis(1,1-dimethylethyl)-5-hydroxyphenyl]-1,4-dihydro-4-oxoquinoline-3-carboxamide triple combination control (% Activity).

Structure (SMILES)	Corrector Assay A % activity	EC50 [µM]
CC1(C)C[C@@H]2CC[C@H](c3ccccn3)Nc3cccc(n3)S(=O)(=O)NC(=O)c3ccc(-c4cccc(OCCC5CC5)n4)nc3N1C2 [Compound 311]	+++ (+++ is >60%)	< 1
CC(C)(C)COc1cccc(-c2ccc3c(n2)N2C[C@@H](CC[C@H](c4ccccn4)Nc4cccc(n4)S(=O)(=O)NC3=O)CC2(C)C)n1 [Compound 312]	+++ (+++ is >60%)	< 1
CC1(C)C[C@@H]2CC[C@H](c3ccccn3)Nc3cccc(n3)S(=O)(=O)NC(=O)c3ccc(-c4cccc(OCC5CCC5)n4)nc3N1C2 [Compound 313, (14S,17R)-8-[6-(cyclobutylmethoxy)pyridin-2-yl]-12,12-dimethyl-17-(pyridin-2-yl)-2λ^6-thia-3,9,11,18,23-pentaazatetracyclo[17.3.1.111,14.05,10]tetracosa-1(22),5,7,9,19(23),20-hexaene-2,2,4-trione]	+++ (+++ is >60%)	< 1
CC1(C)C[C@@H]2CC[C@H](c3ccccn3)Nc3cccc(n3)S(=O)(=O)NC(=O)c3ccc(-c4cccc(OCC5CC5)n4)nc3N1C2 [Compound 314]	+++ (+++ is >60%)	< 1
CC(C)COc1cccc(-c2ccc3c(n2)N2C[C@@H](CC[C@H](c4ccccn4)Nc4cccc(n4)S(=O)(=O)NC3=O)CC2(C)C)n1 [Compound 315]	+++ (+++ is >60%)	< 1
CCOc1cccc(-c2ccc3c(n2)N2C[C@@H](CC[C@H](c4ccccn4)Nc4cccc(n4)S(=O)(=O)NC3=O)CC2(C)C)n1 [Compound 316]	+++ (+++ is >60%)	< 1
CCOc1cccc(-c2ccc3c(n2)N2C[C@@H](CC[C@@H](c4ccccn4)Nc4cccc(n4)S(=O)(=O)NC3=O)CC2(C)C)n1 [Compound 317]	++ (++ is 30-60%)	< 1
CC1(C)C[C@@H]2CC[C@H](c3ccccn3)Nc3cccc(n3)S(=O)(=O)NC(=O)c3ccc(-c4cccc(F)n4)nc3N1C2 [Compound 318, (14S,17R)-8-(6-fluoropyridin-2-yl)-12,12-dimethyl-17-(pyridin-2-yl)-2λ^6-thia-3,9,11,18,23-pentaazatetracyclo[17.3.1.111,14.05,10]tetracosa-1(22),5,7,9,19(23),20-hexaene-2,2,4-trione]	+++ (+++ is >60%)	< 1
CC(C)(C)CCOc1ccn(-c2ccc3c(n2)N2C[C@@H](CC[C@H](c4ccccn4)Nc4cccc(n4)S(=O)(=O)NC3=O)CC2(C)C)n1 [Compound 320, (14S,17R)-8-[3-(3,3-dimethylbutoxy)-1H-pyrazol-1-yl]-12,12-dimethyl-17-(pyridin-2-yl)-2λ^6-thia-3,9,11,18,23-pentaazatetracyclo[17.3.1.111,14.05,10]tetracosa-1(22),5,7,9,19(23),20-hexaene-2,2,4-trione]	+++ (+++ is >60%)	< 1
CC1(COc2ccn(-c3ccc4c(n3)N3C[C@@H](CC[C@H](c5ccccn5)Nc5cccc(n5)S(=O)(=O)NC4=O)CC3(C)C)n2)CC1 [Compound 321]	+++ (+++ is >60%)	< 1
CC(C)(C)COc1ccn(-c2ccc3c(n2)N2C[C@@H](CC[C@H](c4ccccn4)Nc4cccc(n4)S(=O)(=O)NC3=O)CC2(C)C)n1 [Compound 322]	++ (++ is 30-60%)	< 1
CC(C)c1cnn(-c2ccc3c(n2)N2C[C@@H](CC[C@H](c4ccccn4)Nc4cccc(n4)S(=O)(=O)NC3=O)CC2(C)C)c1 [Compound 323]	++ (++ is 30-60%)	< 1
CC1(C)C[C@@H]2CC[C@H](c3ccccn3)Nc3cccc(n3)S(=O)(=O)NC(=O)c3ccc(C4CCC(F)(F)CC4)nc3N1C2 [Compound 324, (14S,17R)-8-(4,4-Difluorocyclohexyl)-12,12-dimethyl-17-(pyridin-2-yl)-2λ^6-thia-3,9,11,18,23-pentaazatetracyclo[17.3.1.111,14.05,10]tetracosa-1(22),5,7,9,19(23),20-hexaene-2,2,4-trione]	+++ (+++ is >60%)	< 1
CC1(C)C[C@@H]2CC[C@H](c3ccccn3)Nc3cccc(n3)S(=O)(=O)NC(=O)c3ccc(C4=CCC(F)(F)CC4)nc3N1C2 [Compound 325, (14S,17R)-8-(4,4-Difluorocyclohex-1-en-1-yl)-12,12-dimethyl-17-(pyridin-2-yl)-2λ^6-thia-3,9,11,18,23-pentaazatetracyclo[17.3.1.111,14.05,10]tetracosa-1(22),5,7,9,19(23),20-hexaene-2,2,4-trione]	+++ (+++ is >60%)	< 1
CC1(C)CCC(c2ccc3c(n2)N2C[C@@H](CC[C@H](c4ccccn4)Nc4cccc(n4)S(=O)(=O)NC3=O)CC2(C)C)CC1 [Compound 326]	+++ (+++ is >60%)	< 1
CC1(C)CC=C(c2ccc3c(n2)N2C[C@@H](CC[C@H](c4ccccn4)Nc4cccc(n4)S(=O)(=O)NC3=O)CC2(C)C)CC1 [Compound 327]	+++ (+++ is >60%)	< 1
CC1(C)C[C@@H]2CC[C@H](c3ccccn3)Nc3cccc(n3)S(=O)(=O)NC(=O)c3ccc(C4CCCCC4)nc3N1C2 [Compound 328]	+++ (+++ is >60%)	< 1
CC1(C)C[C@@H]2CC[C@H](c3ccccn3)Nc3cccc(n3)S(=O)(=O)NC(=O)c3ccc(C4=CCCCC4)nc3N1C2 [Compound 329]	+++ (+++ is >60%)	< 1
CC1(C)C[C@@H]2CC[C@H](c3ccccn3)Nc3cccc(n3)S(=O)(=O)NC(=O)c3ccc(C4CCC4)nc3N1C2 [Compound 330, (14S,17R)-8-cyclobutyl-12,12-dimethyl-17-(pyridin-2-yl)-2λ^6-thia-3,9,11,18,23-pentaazatetracyclo[17.3.1.111,14.05,10]tetracosa-1(22),5,7,9,19(23),20-hexaene-2,2,4-trione]	+++ (+++ is >60%)	< 1

Structure (SMILES)	Corrector Assay A % activity	EC50 [µM]
CC1(C)C[C@@H]2CC[C@H](c3ccccn3)Nc3cccc(n3)S(=O)(=O)NC(=O)c3ccc(N4CCN(CC5CC5)C4=O)nc3N1C2 [Compound 331]	+++ (+++ is >60%)	< 1
CC(C)N1CCN(c2ccc3c(n2)N2C[C@@H](CC[C@H](c4ccccn4)Nc4cccc(n4)S(=O)(=O)NC3=O)CC2(C)C)C1=O [Compound 332]	+++ (+++ is >60%)	1 to 3
CN1CCN(c2ccc3c(n2)N2C[C@@H](CC[C@H](c4ccccn4)Nc4cccc(n4)S(=O)(=O)NC3=O)CC2(C)C)C1=O [Compound 333]	+++ (+++ is >60%)	1 to 3
CC1(C)C[C@@H]2CC[C@H](c3ccccn3)Nc3cccc(n3)S(=O)(=O)NC(=O)c3ccc(-n4ccc(OCC5CC5)n4)nc3N1C2 [Compound 334]	+++ (+++ is >60%)	< 1
COc1ccn(-c2ccc3c(n2)N2C[C@@H](CC[C@H](c4ccccn4)Nc4cccc(n4)S(=O)(=O)NC3=O)CC2(C)C)n1 [Compound 335]	+++ (+++ is >60%)	< 1
CC(C)c1ccn(-c2ccc3c(n2)N2C[C@@H](CC[C@H](c4ccccn4)Nc4cccc(n4)S(=O)(=O)NC3=O)CC2(C)C)n1 [Compound 336]	+++ (+++ is >60%)	< 1
COc1cccc(-c2ccc3c(n2)N2C[C@@H](CC[C@H](c4ccccn4)Nc4cccc(n4)S(=O)(=O)NC3=O)CC2(C)C)n1 [Compound 337]	+++ (+++ is >60%)	< 1
COc1cccc(-c2ccc3c(n2)N2C[C@@H](CC[C@@H](c4ccccn4)Nc4cccc(n4)S(=O)(=O)NC3=O)CC2(C)C)n1 [Compound 338]	+++ (+++ is >60%)	< 1
COc1cccc(-c2ccc3c(n2)N2C[C@@H](CC[C@H](c4ccccn4)Nc4cccc(n4)S(=O)(=O)NC3=O)CC2(C)C)c1 [Compound 339]	+++ (+++ is >60%)	< 1
COc1cccc(-c2ccc3c(n2)N2C[C@@H](CC[C@@H](c4ccccn4)Nc4cccc(n4)S(=O)(=O)NC3=O)CC2(C)C)c1 [Compound 340]	++ (++ is 30-60%)	1 to 3
CC1(C)C[C@@H]2CC[C@H](c3ccccn3)Nc3cccc(n3)S(=O)(=O)NC(=O)c3ccc(-c4c(Cl)cccc4Cl)nc3N1C2 [Compound 341]	+++ (+++ is >60%)	< 1
CC1(C)C[C@@H]2CC[C@@H](c3ccccn3)Nc3cccc(n3)S(=O)(=O)NC(=O)c3ccc(-c4c(Cl)cccc4Cl)nc3N1C2 [Compound 342]	++ (++ is 30-60%)	< 1
CC1(C)C[C@@H]2CC[C@H](c3ccccn3)Nc3cccc(n3)S(=O)(=O)NC(=O)c3ccc(-c4c(F)cccc4Cl)nc3N1C2 [Compound 343]	+++ (+++ is >60%)	< 1
CC1(C)C[C@@H]2CC[C@@H](c3ccccn3)Nc3cccc(n3)S(=O)(=O)NC(=O)c3ccc(-c4c(F)cccc4Cl)nc3N1C2 [Compound 344]	++ (++ is 30-60%)	< 1
CC(C)n1cc(-c2ccc3c(n2)N2C[C@@H](CC[C@@H](c4ccccn4)Nc4cccc(n4)S(=O)(=O)NC3=O)CC2(C)C)cn1 [Compound 345]	++ (++ is 30-60%)	< 1
CC(C)n1cc(-c2ccc3c(n2)N2C[C@@H](CC[C@H](c4ccccn4)Nc4cccc(n4)S(=O)(=O)NC3=O)CC2(C)C)cn1 [Compound 346]	++ (++ is 30-60%)	< 1
CC(C)c1ccc(-c2ccc3c(n2)N2C[C@@H](CC[C@H](c4ccccn4)Nc4cccc(n4)S(=O)(=O)NC3=O)CC2(C)C)cc1 [Compound 347]	+++ (+++ is >60%)	< 1
CC(C)c1ccc(-c2ccc3c(n2)N2C[C@@H](CC[C@@H](c4ccccn4)Nc4cccc(n4)S(=O)(=O)NC3=O)CC2(C)C)cc1 [Compound 348]	++ (++ is 30-60%)	< 1
